Test results reported in ChEMBL document CHEMBL1134138, “Phytoestrogens from the roots of Polygonum cuspidatum (Polygonaceae): structure-requirement of hydroxyanthraquinones for estrogenic activity” (Bioorg Med Chem Lett, 2001).

How the values were obtained:
Estrogen receptor beta [1] = biological target: T1, Estrogen receptor beta (Homo sapiens, UniProt Q92731)
Description: (§1) Inhibition of binding of 17 beta-estradiol to human Estrogen receptor beta

Estrogen receptor beta [2] = biological target: T1, Estrogen receptor beta; remark: listed apart in the source
Description: as §1

Estrogen receptor [3] = biological target: T2, Estrogen receptor (Homo sapiens, UniProt P03372)
T2 sequence (P03372 whole entry): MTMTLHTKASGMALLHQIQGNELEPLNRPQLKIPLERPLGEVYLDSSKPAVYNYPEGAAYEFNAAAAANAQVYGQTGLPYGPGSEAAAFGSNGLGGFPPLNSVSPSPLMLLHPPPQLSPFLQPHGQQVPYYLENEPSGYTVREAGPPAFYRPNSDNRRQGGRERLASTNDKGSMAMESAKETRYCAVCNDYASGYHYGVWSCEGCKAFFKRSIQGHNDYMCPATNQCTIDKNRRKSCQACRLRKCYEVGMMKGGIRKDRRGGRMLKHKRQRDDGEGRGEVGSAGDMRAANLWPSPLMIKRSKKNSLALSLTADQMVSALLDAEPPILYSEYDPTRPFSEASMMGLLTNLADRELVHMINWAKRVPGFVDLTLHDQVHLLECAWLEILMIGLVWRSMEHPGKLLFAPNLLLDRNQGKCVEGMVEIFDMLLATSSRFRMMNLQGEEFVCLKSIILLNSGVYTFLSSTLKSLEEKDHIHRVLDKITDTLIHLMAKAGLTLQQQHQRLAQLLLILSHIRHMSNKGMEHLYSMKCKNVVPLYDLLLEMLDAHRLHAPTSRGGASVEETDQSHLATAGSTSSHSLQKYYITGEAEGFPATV
Description: (§2) Inhibition of binding of 17 beta-estradiol to human Estrogen receptor alpha

Estrogen receptor [4] = biological target: T2, Estrogen receptor; remark: listed apart in the source
Description: as §2

T1 sequence (Q92731 whole entry): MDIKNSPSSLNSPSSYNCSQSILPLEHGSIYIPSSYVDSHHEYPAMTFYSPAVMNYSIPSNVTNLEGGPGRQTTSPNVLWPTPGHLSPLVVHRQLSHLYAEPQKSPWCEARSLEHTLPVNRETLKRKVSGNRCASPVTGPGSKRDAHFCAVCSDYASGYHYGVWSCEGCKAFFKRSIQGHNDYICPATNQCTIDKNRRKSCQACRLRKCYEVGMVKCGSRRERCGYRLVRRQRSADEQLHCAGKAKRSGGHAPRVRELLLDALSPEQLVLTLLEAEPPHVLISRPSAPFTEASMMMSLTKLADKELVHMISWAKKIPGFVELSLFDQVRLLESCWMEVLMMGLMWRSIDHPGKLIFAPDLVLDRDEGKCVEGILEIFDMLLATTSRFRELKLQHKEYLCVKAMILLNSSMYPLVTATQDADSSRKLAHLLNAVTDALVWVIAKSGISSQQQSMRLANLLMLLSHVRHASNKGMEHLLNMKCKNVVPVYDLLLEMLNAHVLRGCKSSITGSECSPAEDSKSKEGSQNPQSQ

Row | SMILES | Ki (Estrogen receptor beta [1]) [µM] | IC50 (Estrogen receptor beta [2]) [µM] | Ki (Estrogen receptor [3]) [µM] | IC50 (Estrogen receptor [4]) [µM]
1 | O=C1c2ccc(O)cc2C(=O)c2ccc(O)cc21 | 0.69 | 2.4 | 0.31 | 1.1
2 | Cc1cc(O)c2c(c1)C(=O)c1cc(O)cc(O[C@@H]3O[C@H](CO)[C@@H](O)[C@H](O)[C@H]3O)c1C2=O [EMODIN 8-O-BETA-D-GLUCOPYRANOSIDE] | 18 | 62 | 5.7 | 20
3 | Cc1cc(O)c2c(c1)C(=O)c1cc(O)cc(O)c1C2=O [EMODIN] | 1.5 | 5.2 | – | –
